Where a name gives a salt, the structure may show the parent alone.
How the values were obtained:
[1] = biological target: T1, Farnesyl-protein transferase (FTase) (Bos taurus, UniProt P29702+P49355); assay: Inhibition of Ras farnesylation in vitro (FTase inhibition, Ras-CVLS and [3H]FPP); type: biochemical, bovine; conditions: for IC50: Ras-CVLS 3.5 μM, 0.25 μM [3H]FPP, partially purified FTase from bovine brain, assay buffer pH 7.5
T1 construct: Farnesyl-protein transferase (FTase) from bovine brain; from tissue; host or cells: bovine brain, partially purified (DEAE-Sephacel, N-octyl agarose, mono Q)
Method: The intrinsic farnesyl-protein transferase (FTase) activity of representative compounds of this invention was measured by the assay as described below:
Farnesyl-protein transferase (FTase) from bovine brain was chromatographed on DEAE-Sephacel (Pharmacia, 0-0.8M NaCl gradient elution), N-octyl agarose (Sigma, 0-0.6M NaCl gradient elution), and a mono Q HPLC column (Pharmacia, 0-0.3M NaCl gradient). Ras-CVLS (Cys-Val-Leu-Ser) at 3.5 μM, 0.25 μM [^3 H]FPP, and the indicated compounds were incubated with this partially purified enzyme preparation. The FTase inhibition data presented below is a measurement of the ability of the test compound to inhibit Ras farnesylation in vitro.

[2] = Equilibrium between diacid (10) and anhydride (9) in solution, pH dependence (UV); type: physicochemical; conditions: for Predominant form in anhydride/diacid equilibrium: in solution, pH dependent
Description: The equilibrium between diacid (10) and anhydride (9) in a solution is pH dependent. […] However, when basified with dil NaOH, this maximum shifted to ^λ max 243 nm. This shift is clear evidence of opening of the anhydride into the diacid.
(§1) The latter band under went a hypsochromic shift to […] after addition of dil NaOH.

[3] = Reaction of anhydride (9) with CH3OH; type: physicochemical; conditions: methanolic solution
Description: as §1

SMILES: CCCCCCCCCCCCCC/C(C(=O)O)=C(\C)C(=O)O [diisopropylethylamine salt]
- RAS farnesyl transferase inhibitory activity of trapped diacid salt ([1]; open diacid form (10) trapped as diisopropylethylamine salt): without any loss of RAS farnesyl transferase inhibitory activity

SMILES: CCCCCCCCCCCCCC/C(C(=O)O)=C(\C)C(=O)O [Compound (10)]
- IC50 [1]: 46 nM
- Predominant form in anhydride/diacid equilibrium [2]: predominates when the solution is basic

SMILES: CCCCCCCCCCCCCCC1=C(C)C(=O)OC1=O [Compound (9)]
- IC50 [1]: 46 nM
- Form present under assay conditions ([2]; CH3OH-HEPES buffer (7:5), pH 7.5, UV maximum 243 nm): exits in the open dicarboxylate form of compound (10)
- Predominant form in anhydride/diacid equilibrium [2]: predominates when the solution is acidic
- Reactivity with CH3OH [3]: reacts slowly with CH3 OH
